Test results as given in patent publication US10768174B2, “Attachment of proteins to interfaces for use in nonlinear optical detection” (Bluelight Therapeutics, Inc., priority 2014, dated 2020).
pKd: −log10 of the molar value.

Legend:
calmodulin (CaM) = target: T1, calmodulin (CaM) (Homo sapiens, UniProt P0DP23); experiment: SHG detection of ligand-induced conformational change of labeled calmodulin tethered to Ni-NTA supported lipid bilayer; format: binding; conditions: buffer containing 1 mM CaCl2 injected; N=3
T1 construct: purchased EMD Millipore (Billerica, Mass.)
Text: MBP and CaM Proteins: To explore the ability of our SHG bilayer system to detect and measure conformational changes of a protein, we began by testing the system on CaM and MBP, two proteins previously studied by SHG [32, 33]. First, we tethered labeled CaM to the SLB surface and monitored the change in SHG intensity upon addition of the calmodulin binding peptide (CBP) in the presence or absence of calcium-containing buffers. […] When calcium is omitted from the buffer, addition of the peptide alone results in M=3.1%, (N=3, SEM±1.6) change in SHG intensity, essentially no change (FIG. 7B). […] Next, we evaluated the effect of adding calcium ions. […] Peptide was then added directly to these samples two minutes after calcium addition, producing a positive signal change of M=8.7% (N=3, SEM±0.4). As the magnitude of the SHG signal is proportional to the net, average orientation of the dye label relative to the surface normal, the different magnitudes of SHG signal change upon binding CBP and calcium to unbound CaM confirm that these ligands bind to specific and different conformations of the protein. SHG signal changes can occur in either the positive or negative direction relative to baseline depending on whether the net, average orientation of the probe moves closer to or further away from the surface normal, respectively. […]
(§1) SHG signal was monitored over several minutes after injection.

[1] = target: monomeric forms of avidin or streptavidin; conditions: read-out: biotin-binding affinity of monomeric forms of avidin or streptavidin; cited from earlier work
His-tag-Ni-NTA linkage = experiment: Specificity of protein attachment to bilayer: incubation with or without imidazole, SHG signal; format: binding; conditions: imidazole 350 mM (FIG. 6A legend) / 300 mM (methods)
Description: We began by characterizing the attachment of the proteins to our SLB surface. The SLB surface we employed has integrated immobilized metal affinity (Ni-NTA) chemistry to specifically tether the proteins to the bilayer in an oriented manner via a poly-histidine tag at the N- or C-terminus. To test the specificity of this interaction, each protein was incubated on the bilayer in the presence or absence of imidazole, a competitive inhibitor of His-tagged protein binding. […] When labeled protein is incubated in the presence of imidazole, SHG signal levels are reduced to less than 10% of the original signal or to background levels, i.e. to those of bilayer alone.

[2] = target: T2, maltose binding protein (MBP) (Escherichia coli, UniProt P0AEX9); experiment: SHG detection of ligand-induced conformational change of lysine-labeled MBP tethered to Ni-NTA supported lipid bilayer; set-up: purchased AtGen Co, Ltd (Seongnam-si, Gyeonggi-do, South Korea); conditions: for change in SHG intensity (M): 2 mM maltose, MBP labeled at pH 7.5, N=3; for change in SHG signal (M): 2 mM, MBP labeled at pH 8.3, N=4
Description: We also performed a similar set of experiments with MBP. First, we monitored the SHG intensity of MBP labeled at pH 8.3 upon addition of buffer, lactose, or maltose. […] Because the addition of both 2 mM lactose and buffer alone result in negligible changes in SHG intensity, the change in SHG intensity upon maltose addition is specific to ligand-induced conformational change upon binding.
The converse trend, preference at K88 over K15, was observed when the experimental conditions changed to pH 8.3. […] Based on inspection of the crystal structures, we hypothesized that when MBP is primarily labeled at K15 rather than K88, this could alter the directionality of SHG signal change upon ligand addition relative to the reverse case, since K15 and K88 appear to rotate towards and away from the surface normal, respectively, assuming the protein is oriented with its N-terminus facing the bilayer. […] Consistent with previous results, the addition of lactose and buffer alone had no effect.
J Am Chem Soc 136(29):10349-10360). […] (under standard kinetic condition described in ref [28].
Excess protein was removed by additional washes after incubation.
as §1

[3] = target: T2, maltose binding protein (MBP); experiment: Example 2 SHG kinetic reads of PyMPO-labeled His-tagged MBP tethered on 10% Ni-NTA bilayer; conditions: 10 uL injection of 2 mM solution into 10 uL well; 10% Ni-NTA tethered MBP
Description: Protein labeling protocol: Stock His-tagged maltose binding protein (MBP) (1 mL at nominal 0.5 mg/mL) was buffer exchanged from 20 mM Tris-HCL pH 8.0, 0.1 M NaCl, 10% Glycerol into 0.1 M Na phosphate, pH 7.5 by passing over two of the 2 mL Zeba™ Spin Desalting Columns (Thermo Scientific) equilibrated per the manufacturer's instructions. Concentration and volume of the buffer exchanged material were determined by measuring absorbance on a NanoDrop Spectrophotometer (Thermo Scientific). PyMPO-NHS was weighed out and dissolved to 2 mM in dry DMSO. PyMPO-NHS was added to the buffer exchanged MBP at 3.5:1 mole equivalents. The conjugation reaction was allowed to proceed in the dark at room temp, stirring gently, for 15 minutes. The reaction was terminated by buffer exchange back into the MBP storage buffer (20 mM Tris-HCL pH 8.0, 0.1 M NaCl, 10% Glycerol) over a fresh pair of Zeba™ Spin Desalting Columns. The resultant conjugate was centrifuged at 16K×g for 20 minutes at 4° C., and volume, concentration and degree of labeling was determined for the supernatant by measuring absorbance at 280 nm and 410 nm on the NanoDrop. […]
Scanning: The entire slide was line scanned to gather SHG data for determining the relative tethering efficiency of 3% vs 10% Ni-NTA surfaces. Well positions for 10% Ni-NTA tethered MBP were recorded and used to set up the MBP kinetic reads (3 wells total). […]

Compound | change in SHG intensity (M) [2] | change in SHG signal (M) [2] | other results
[Ca+2].[Cl-].[Cl-] [CaCl2] | – | – | change in SHG signal (M) (calmodulin (CaM)): −12.6%
O=C(O)CCCC[C@@H]1SC[C@@H]2NC(=O)N[C@@H]21 [biotin] | – | – | pKd [1]: ~8.00
c1c[nH]cn1 [imidazole] | – | – | SHG signal level of labeled protein incubated in the presence of imidazole (His-tag-Ni-NTA linkage): less than 10 % of the original signal
OC[C@H]1O[C@@H](O[C@H]2[C@H](O)[C@@H](O)C(O)O[C@@H]2CO)[C@H](O)[C@@H](O)[C@H]1O (some centres unmarked) [lactose] | no effect | 0.44% | –
OC[C@H]1O[C@H](O[C@H]2[C@H](O)[C@@H](O)[C@H](O)O[C@@H]2CO)[C@H](O)[C@@H](O)[C@@H]1O [maltose] | 27.4% | −33.8% | SHG response (induced conformational change) of MBP [3]: only responded to addition of maltose
